Laboratory results published in US20230091225A1, “Bifunctional chimeric heterocyclic compounds for targeted degradation of androgen receptors and use thereof” (HINOVA PHARMACEUTICALS INC., priority 2019, published 2023).

What follows are molecules tested against T1, androgen receptor (AR) (Homo sapiens, UniProt P10275) (assay: Degradation of androgen receptor (AR) protein in VCaP cells by Western blot). Conditions: percentage of degraded AR at 100 nM, VCaP cells, 16 h.
T1 sequence (P10275 1-920): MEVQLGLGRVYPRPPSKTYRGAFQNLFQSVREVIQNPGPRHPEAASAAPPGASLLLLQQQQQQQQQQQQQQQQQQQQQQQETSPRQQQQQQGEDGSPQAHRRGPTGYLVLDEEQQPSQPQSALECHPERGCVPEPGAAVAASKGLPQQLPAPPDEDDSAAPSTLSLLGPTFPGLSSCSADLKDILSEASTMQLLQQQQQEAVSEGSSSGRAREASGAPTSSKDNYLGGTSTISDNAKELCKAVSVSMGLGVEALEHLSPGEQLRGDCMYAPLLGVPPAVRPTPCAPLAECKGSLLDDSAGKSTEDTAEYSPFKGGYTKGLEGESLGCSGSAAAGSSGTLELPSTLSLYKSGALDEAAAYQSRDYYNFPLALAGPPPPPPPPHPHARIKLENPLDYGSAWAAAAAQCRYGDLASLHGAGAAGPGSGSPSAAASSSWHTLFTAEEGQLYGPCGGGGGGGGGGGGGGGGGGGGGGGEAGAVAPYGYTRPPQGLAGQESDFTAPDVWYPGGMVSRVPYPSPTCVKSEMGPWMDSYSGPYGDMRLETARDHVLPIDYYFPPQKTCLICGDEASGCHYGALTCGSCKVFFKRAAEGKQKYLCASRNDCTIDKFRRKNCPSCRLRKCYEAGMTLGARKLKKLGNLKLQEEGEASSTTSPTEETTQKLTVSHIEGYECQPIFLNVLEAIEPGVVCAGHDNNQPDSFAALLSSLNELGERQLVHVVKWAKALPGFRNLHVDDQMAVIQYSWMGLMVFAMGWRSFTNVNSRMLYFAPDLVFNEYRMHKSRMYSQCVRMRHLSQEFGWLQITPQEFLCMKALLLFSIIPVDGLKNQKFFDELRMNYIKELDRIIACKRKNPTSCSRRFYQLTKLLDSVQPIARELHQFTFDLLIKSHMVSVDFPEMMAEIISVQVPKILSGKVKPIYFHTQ
Assay type: cell-based
Summary of the method: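 VCaP cells (5×10^5/well) were seeded overnight, then treated in duplicate for 16 h with compound in 0.1% DMSO final. Lysates (30 μg protein) were immunoblotted for AR (D6F11) with β-actin as loading control, detected by ECL chemiluminescence.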
Molecule `CC1(C)[C@H](Oc2ccc(C#N)c(Cl)c2)C(C)(C)[C@H]1N1Cc2nc(C#C[C@H]3CC[C@H](N4CCN(c5cc6c(cc5F)C(=O)N(C5CCC(=O)NC5=O)C6=O)CC4)CC3)ccc2C1=O` (stereo partly drawn) [Compound 326] has an inhibition at 0.1 µM of 50 to 79%. Work on `CC1(C)[C@H](Oc2ccc(C#N)c(Cl)c2)C(C)(C)[C@H]1N1Cc2nc(C#CC3CCN(C4CN(c5ccc6c(c5)C(=O)N(C5CCC(=O)NC5=O)C6=O)C4)CC3)ccc2C1=O` (stereo partly drawn) [Compound 317, 2-Chloro-4-((1r,3r)-3-(2-((1-(1-(2-(2,6-dioxopiperidin-3-yl)-6-fluoro-1,3-dioxoisoindolin-5-yl)azitidin-3-yl)piperidine-4-yl)ethynyl)-5-oxo-5H-pyrrolino [3,4-b]pyridin-6(7H)-yl)-2,2,4,4-tetramethylcyclobutoxy)benzonitrile] yielded an inhibition at 0.1 µM of 50 to 79%. With `N#Cc1ccc(OC2CCC(NC(=O)c3ncc(N4C[C@H]5CC(N6CCN(c7cc8c(cc7F)C(=O)N(C7CCC(=O)NC7=O)C8=O)CC6)C[C@H]5C4)cn3)CC2)cc1Cl` (stereo partly drawn) [Compound 294, N-((1r,4r)-4-(3-chloro-4-cyanophenoxy)cyclohexyl)-5-((3aR,5R,6aS)-5-(4-(2-(2,6-dioxopiperidin-3-yl)-6-fluoro-1,3-dioxoisoindolin-5-yl)piperazin-1-yl)hexahydrocyclopenta[c]pyrrole-2(1H)-yl)pyrimidine-2-carboxamide] the “% degradation” value was “C (49%-25%)”. `N#Cc1ccc(O[C@H]2CC[C@H](NC(=O)c3ccc(N4CCC(CN5CCC(Nc6cc7c(cc6F)C(=O)N(C6CCC(=O)NC6=O)C7=O)CC5)CC4)nn3)CC2)cc1Cl` (stereo partly drawn) [Compound 139] was tested, and the inhibition at 0.1 µM was > 80%. For `N#Cc1ccc(OC2CCC(NC(=O)c3ccc(N4C[C@@H]5C(CN6CCN(c7cc8c(cc7F)C(=O)N(C7CCC(=O)NC7=O)C8=O)CC6)[C@@H]5C4)nn3)CC2)cc1Cl` (stereo partly drawn) [Compound 178, N-((1r,4R)-4-(3-chloro-4-cyanophenoxy)cyclohexyl)-6-((1R,5S,6S)-6-((4-(2-(2,6-dioxopiperidin-3-yl)-6-fluoro-1,3-dioxoisoindolin-5-yl)piperazin-1-yl)methyl)-3-azabicyclo[3.1.0]hexan-3-yl)pyridazine-3-formamide], the “% degradation” value was “B (79%-50%)”. In the case of `N#Cc1ccc(O[C@H]2CC[C@H](NC(=O)c3ccc(N4CCC(N5CC6CN(c7ccc8c(c7)C(=O)N(C7CCC(=O)NC7=O)C8=O)CC6C5)CC4)nn3)CC2)cc1Cl` (stereo partly drawn) [Compound 62, N-((1r,4r)-4-(3-chloro-4-cyanophenoxy)cyclohexyl)-6-(4-(5-(2-(2,6-dioxopiperidin-3-yl)-1,3-dioxoisoindolin-5-yl)hexahydropyrrolo[3,4-c]pyrrol-2(1H)-yl)piperidin-1-yl)pyridazine-3-carboxamide], the inhibition at 0.1 µM is reported as 50 to 79%. In the case of `N#Cc1ccc(OC2CCC(NC(=O)c3ccc(N4CCC(CN5CCC6(CC5)CN(c5ccc7c(c5)C(=O)N(C5CCC(=O)NC5=O)C7=O)C6)CC4)nn3)CC2)cc1Cl` (stereo not drawn) [Compound 230, N-((1r,4r)-4-(3-chloro-4-cyanophenoxy)cyclohexyl)-6-(4-((2-(2-(2,6-dioxopiperidin-3-yl)-1,3-dioxoisoindolin-5-yl)-2,7-diazaspiro[3.5]nonan-7-yl)methyl)piperidin-1-yl)pyridazine-3-carboxamide], the “% degradation” value is reported as “A (>80%)”. `N#Cc1ccc(O[C@H]2CC[C@H](NC(=O)c3cnc(N4CCC(N5CC6(CCN(c7cc8c(cc7F)C(=O)N(C7CCC(=O)NC7=O)C8=O)CC6)C5)CC4)cn3)CC2)cc1Cl` (stereo partly drawn) [Compound 228, N-((1r,4r)-4-(3-chloro-4-cyanophenoxy)cyclohexyl)-5-(4-(7-(2-(2,6-dioxopiperidin-3-yl)-6-fluoro-1,3-dioxoisoindolin-5-yl)-2,7-diazaspiro[3.5]nonan-2-yl)piperidin-1-yl)pyrazine-2-carboxamide] was tested, and the inhibition at 0.1 µM was > 80%. With `N#Cc1ccc(O[C@H]2CC[C@H](NC(=O)c3cnc(N4CCC(CN5CC6CN(c7ccc8c(c7)C(=O)N(C7CCC(=O)NC7=O)C8=O)CC6C5)CC4)nc3)CC2)cc1Cl` (stereo partly drawn) [Compound 256, N-((1r,4r)-4-(3-chloro-4-cyanophenoxy)cyclohexyl)-2-(4-((5-(2-(2,6-dioxopiperidin-3-yl)-1,3-dioxoisoindolin-5-yl)Hexahydropyrrolo[3,4-c]pyrrol-2(11H)-yl)methyl)piperidin-1-yl)pyrimidine-5-carboxamide] the inhibition at 0.1 µM was 25 to 49%. `N#Cc1ccc(Oc2ccc(NC(=O)c3ccc(N4CCC(CN5CCN(c6cc7c(cc6F)C(=O)N(C6CCC(=O)NC6=O)C7=O)CC5)CC4)nn3)cc2)cc1Cl` (stereo not drawn) [Compound 227, N-(4-(3-chloro-4-cyanophenoxy)phenyl)-6-(4-((4-(2-(2,6-dioxopiperidin-3-yl)-6-fluoro-1,3-dioxoisoindolin-5-yl)piperazin-1-yl)methyl)piperidin-1-yl)pyridazine-3-formamide] showed an inhibition at 0.1 µM of 25 to 49%. `N#Cc1ccc(O[C@H]2CC[C@H](NC(=O)c3cnc(N4CCN([C@@H]5C[C@@H]6CN(c7ccc8c(c7)C(=O)N(C7CCC(=O)NC7=O)C8=O)C[C@@H]6C5)CC4)nc3)CC2)cc1Cl` (stereo partly drawn) [Compound 300, N-((1r,4r)-4-(3-chloro-4-cyanophenoxy)cyclohexyl)-2-(4-((3aR,5R,6aS)-2-(2-(2,6-dioxopiperidin-3-yl)-1,3-dioxoisoindolin-5-yl)octahydrocyclopenta[c]pyrrol-5-yl)piperazin-1-yl)pyrimidine-5-carboxamide] was tested, and the inhibition at 0.1 µM was < 25%. With `N#Cc1ccc(O[C@H]2CC[C@H](NC(=O)c3cnc(N4CCC(CN5CCC6(CCN(c7cc8c(cc7F)C(=O)N(C7CCC(=O)NC7=O)C8=O)C6)C5)CC4)cn3)CC2)cc1Cl` (stereo partly drawn) [Compound 141] the inhibition at 0.1 µM was > 80%. In the case of `N#Cc1ccc(O[C@H]2CC[C@H](NC(=O)c3ccc(N4CCC(CN5CCC6(C5)CN(c5ccc7c(c5)C(=O)N(C5CCC(=O)NC5=O)C7=O)C6)CC4)nn3)CC2)cc1Cl` (stereo partly drawn) [Compound 185, N-((1r,4r)-4-(3-chloro-4-cyanophenoxy)cyclohexyl)-6-(4-((2-(2-(2,6-dioxopiperidin-3-yl)-1,3-dioxoisoindolin-5-yl)-2,6-diazaspiro[3.4]octan-6-yl)methyl)piperidin-1-yl)pyridazine-3-formamide], the inhibition at 0.1 µM is reported as > 80%. With `N#Cc1ccc(O[C@H]2CC[C@H](NC(=O)c3ccc(N4CCC(O[C@@H]5CCN(c6ccc7c(c6)C(=O)N(C6CCC(=O)NC6=O)C7=O)C5)CC4)cc3)CC2)cc1Cl` (stereo partly drawn) [Compound 111] the inhibition at 0.1 µM was < 25%. With `N#Cc1ccc(O[C@H]2CC[C@H](NC(=O)c3ccc(N4CCC(CN5CCC6(C5)CN(c5cc7c(cc5F)C(=O)N(C5CCC(=O)NC5=O)C7=O)C6)CC4)nn3)CC2)cc1Cl` (stereo partly drawn) [Compound 184, N-((1r,4r)-4-(3-chloro-4-cyanophenoxy)cyclohexyl)-6-(4-((2-(2-(2,6-dioxopiperidin-3-yl)-6-fluoro-1,3-dioxoisoindolin-5-yl)-2,6-diazaspiro[3.4]octan-6-yl)methyl)piperidin-1-yl)pyridazine-3-formamide] the inhibition at 0.1 µM was > 80%. `N#Cc1ccc(OC2CC3(C2)CN(C(=O)c2ccc(N4CCC(CN5CCN(c6ccc7c(c6)C(=O)N(C6CCC(=O)NC6=O)C7=O)CC5)CC4)nn2)C3)cc1Cl` (stereo not drawn) [Compound 120, 2-chloro-4-((2-(6-(4-((4-(2-(2,6-dioxopiperidin-3-yl)-1,3-dioxoisoindolin-5-yl)piperazin-1-yl)methyl)piperidin-1-yl)pyridazine-3-carbonyl)-2-azaspiro[3.3]heptan-6-yl)oxy)benzonitrile] was tested, and the inhibition at 0.1 µM was < 25%. Molecule `CC1(C)[C@H](NC(=O)c2ccc(N3CCC(N4C[C@H]5CN(c6cc7c(cc6F)C(=O)N(C6CCC(=O)NC6=O)C7=O)C[C@H]5C4)CC3)nn2)C(C)(C)[C@H]1Oc1ccc(C#N)c(Cl)c1` (stereo partly drawn) [Compound 221, N-((1r,3R)-3-(3-chloro-4-cyanophenoxy)-2,2,4,4-tetramethylcyclobutyl)-6-(4-((3aR,6aS)-5-(2-(2,6-dioxopiperidin-3-yl)-6-fluoro-1,3-dioxoisoindolin-5-yl)hexahydropyrrolo[3,4-c]pyrrol-2(1H)-yl)piperidin-1-yl)pyridazine-3-carboxamide] has an inhibition at 0.1 µM of 25 to 49%. `N#Cc1ccc(O[C@H]2CC[C@H](NC(=O)c3cnc(N4CCN([C@@H]5C[C@@H]6CN(c7cc8c(cc7F)C(=O)N(C7CCC(=O)NC7=O)C8=O)C[C@@H]6C5)CC4)nc3)CC2)cc1Cl` (stereo partly drawn) [Compound 299, N-((1r,4r)-4-(3-chloro-4-cyanophenoxy)cyclohexyl)-2-(4-((3aR,5R,6aS)-2-(2-(2,6-dioxopiperidin-3-yl)-6-fluoro-1,3-dioxoisoindolin-5-yl)octahydrocyclopenta[c]pyrrol-5-yl)piperazin-1-yl)pyrimidine-5-formamide] was tested, and the inhibition at 0.1 µM was < 25%.
